Read-outs that look alike come from different tables or passages of the source.

The target in assay [1] is T1, carbonic anhydrase II (CAII) (Bos taurus, UniProt P00921). The conditions noted are these: read-out: KD (μM) ProteOn (2); BioRad ProteOn XPR36; cited from earlier work.
The target in assay [2] is T1, carbonic anhydrase II (CAII). The conditions noted are these: read-out: KD (μM) Biacore (8); benchmark study on Biacore platforms; cited from earlier work.
The target is the same in assay [3]. Description: SPR. The note with it: for kon: read-out: ka.
The target is the same in assay [4]. Description: SPR standard injection, ADP over negative-control CAII surface. Type of assay: binding. The conditions noted are these: standard injections, two-fold dilution series from 300 uM, 25 °C.

T1 sequence (P00921 whole entry): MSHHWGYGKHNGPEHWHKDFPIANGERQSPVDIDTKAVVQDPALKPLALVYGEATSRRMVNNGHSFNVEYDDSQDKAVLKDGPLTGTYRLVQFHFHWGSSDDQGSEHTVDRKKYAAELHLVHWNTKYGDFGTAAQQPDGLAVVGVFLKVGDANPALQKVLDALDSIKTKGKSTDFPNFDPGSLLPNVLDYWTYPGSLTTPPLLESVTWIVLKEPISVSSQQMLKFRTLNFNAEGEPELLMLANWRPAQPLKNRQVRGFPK

Regarding `NS(=O)(=O)c1cccc(S(N)(=O)=O)c1` [1,3-Benzenedisulfonamide], the figures for the dissociation constant Kd in assay [1], in assay [2] and in assay [3] were 0.64 µM, 0.8 µM and 613 nM, respectively. For the same compound, the kon in assay [3] is 179000 M⁻¹ s⁻¹.

Regarding `NCc1ccc(S(N)(=O)=O)cc1` [4-(Aminomethyl)benzenesulfonamide], the figures for the Kd in assay [2] and in assay [3] were 3 µM and 5200 nM, respectively. The kon in assay [3] came to 7300 M⁻¹ s⁻¹.

Regarding `Nc1ncnc2c1ncn2[C@@H]1O[C@H](COP(=O)(O)OP(=O)(O)O)[C@@H](O)[C@H]1O` [ADP, adenosine diphosphate], the “binding on negative-control CAII surface” value in assay [4] is recorded as “no reliable ADP binding was observed”.

As for `NS(=O)(=O)c1ccccc1` [Benzenesulfonamide], the Kd in assay [1] is 1.1 µM; in assay [2] it was 0.8 µM; in assay [3], 970 nM. Further, in assay [3], the kon was 135000 M⁻¹ s⁻¹.

For `CN(C)c1cccc2c(S(N)(=O)=O)cccc12` [Dansylamide], the dissociation constant Kd in assay [1] is 0.8 µM; in assay [2], 0.4 µM.
